Entries after “also recorded” stand apart in the source; their conditions may differ.
Legend:
PC3 Cancer cell line = assay: Cancer cell viability assay, PC3; format: cell-based
Description: (§1) Cells were maintained in a 37° C. incubator with 5% CO2 throughout the experiment. Compound stocks were dissolved in 10% DMSO, but final concentrations were made fresh in complete media as needed. 10% DMSO solvent was used as control in complete media. Cells were seeded onto 12-well plates and allowed 12-24 hours until treatment began to allow cells to adhere to wells. This was followed by minimum 5-day treatment of compounds, changing the media with treatment every 48 hours. Cell lines A549, PC3, and SK-MEL-5 were seeded at 8000 cells/well which would provide 80-100% confluency after 6-day growth. SH-SY5Y was seeded at 8000 cells/well then 16,000 cells/well due to slower growth and given at least 10 days for sufficient growth. After allotted growth times, cell counts were performed via Countess™ automated cell counter. All assays were completed with a minimum of triplicate replicates for all conditions and analyzed through GraphPad Prism One-way ANOVA for significance.

[1] = tested on: A. thaliana plants (Col-0); assay: Cold tolerance assay; format: in vivo, Arabidopsis thaliana; details: cold treatment to -10° C., scored after 5 days; controls ~30%
Description: HDACs have also been implicated in responses to a number of abiotic stresses, such as temperature, drought, salt, etc in a variety of ways (M. Luo, et al., Frontiers in Plant Science 8, (2017)). One of the phenotypes that can be rapidly tested in a laboratory is tolerance to cold temperatures in Arabidopsis. […] The yellowing of leaves was determined after 5 days and the controls ˜30% of the leaves turned yellow-brown in the classic cold response previously documented.
Twenty six day old A. thaliana plants (Col-0), that had been transplanted at day 7 to soil, were cold-acclimatized the plants for 7 days at 4° C., and then transferred to respective odor exposure chambers with a petridish containing 2 ml of chemical dissolved in PO or PO alone in a freezing chamber in which temperatures went down every 2° C. for 0.5 h and maintained for 1 hour, and it dropped up to −10° C. […] The survival rate was determined after 5 days. […] One-way analysis of Variance (ANOVA) between groups was performed for plant exposure quantitative data using Graph Pad Prism 9.

[2] = tested on: Class I and Class II HDACs; assay: In vitro assays with purified human Class I and II HDACs (panel statements); format: biochemical; details: 15 mM in 1% DMSO; HDAC 1, 3, 4 and 6
Description: Presented are data for selected compounds that act as Histone deacetylase inhibitors in vitro or HDAC inhibitors. 26 compounds were screened against purified human HDACs.
HDAC activity of class I HDACs (HDAC1 and 3) was measured with the fluorometric HDAC Activity Assay kit: HDAC1 (10011563, Cayman Chemical, Ann Arbor, MI) and HDAC3 (50073 BPS Bioscience, San Diego, CA), according to the manufacturer's instructions. HDAC activity of class II HDACs (HDAC4 and HDAC6) was measured with the fluorometric HDAC Activity Assay kit: HDAC4, […] (50064 and 50076, BPS Bioscience, San Diego, CA), according to the manufacturer's instructions. All compounds were tested in single dose duplicate mode at 15 mM concentrations in 1% DMSO, based on the IC50 of 2,3-butanedione established in earlier work. Due to interference, concentrations of >30 mM were not used in the IC50 calculation. To account for any interference at lower concentrations, all baseline measurements of blank wells (no HDAC enzyme) were performed and subtracted with the various concentrations of 2,3-butanedione.
Diacetyl and 3 structurally related VOCs were evaluated using in vitro assay kits for measuring activity of four purified HDACs. Of the four VOCs), each has a different functional group, two are natural in origin, previously detected from microbes that are known to be present in soil (M. C. Lemfack et al., Nucleic Acids Res 46, D1261-D1265 (2018); and R. H. Cagan, W. N. Zeiger, Proc. Nat. Acad. Sci. U.S.A. 75, 4679-4683 (1978)) and two that are not (α-angelica lactone and ethyl pyruvate). […] All 4 VOCs inhibited both Class I HDACs (L. L. Walling, The Myriad Plant Responses to Herbivores. J Plant Growth Regul 19, 195-216 (2000); and M. Heil, R. Karban, Trends Ecol Evol 25, 137-144 (2010)) and the Class II HDAC6 with differences in degree (FIG. 2A,B).

[3] = tested on: Arabidopsis thaliana seedlings; assay: Odor Exposure assay, Arabidopsis thaliana seedlings (root and leaf development); format: in vivo; details: 10-fold lower dose (0.1% solution headspace)
SH-SY5Y Cancer cell line = assay: Cancer cell viability assay, SH-SY5Y; format: cell-based
Description: as §1

## CC(=O)C(C)=O [2,3-butanedione]
PC3 Cancer cell line
  inhibition of prostate cancer (PC3) cell line, summary: has potential in inhibiting
PC3 Cancer cell line; 33 uM, triplicates
  changes in proliferation, PC3: No Significant changes in proliferations
[1]
  yellow leaves after freezing: ~20%
[2]
  HDAC inhibition against Class I and Class II HDACs: inhibits both class 1 and class 2 HDACs
[3]
  change from solvent treated seedlings in every growth category: significant change
SH-SY5Y Cancer cell line
  inhibition of neuroblastoma (SH-SY5Y) cell line, summary: has potential in inhibiting
SH-SY5Y Cancer cell line; 33 micro-molar
  changes in proliferation, SH-SY5Y: significant inhibition of cell growth; also recorded: Significant changes in proliferations
SH-SY5Y Cancer cell line; 100 micro-molar
  changes in proliferation, SH-SY5Y: significant inhibition of cell growth; also recorded: Significant changes in proliferations
